Assay results reported in US9850216B2 (H. LEE MOFFITT CANCER CENTER AND RESEARCH INSTITUTE, INC., priority 2013, dated 2017).
Several values for one entry are separate records, joined by “and”; a condition that tells them apart may be missing. Identical values can stand only once. Like-named read-outs stand apart in the source and are kept apart here. One block for each molecule: values may come before it.

Key:
[1] = test system: LNCaP cells; test: Cell proliferation, trypan blue exclusion, LNCaP; format: cell-based, human; conditions: 36 hrs, viable cells by trypan blue exclusion, read-out: IC50, inhibition of cell growth in LNCaP cells
Experimental: (§1) The number of viable cells was counted by trypan blue exclusion assay.
(§2) Three distinct human prostate cancer derived cell lines, LNCaP, LAPC4 and VCaP were either DMSO treated or treated with 1, 2.5, 5, 7.5 and 10 μM of inhibitors, AIM-100, (R)-9b and (S)-9b for 36 hrs and the number of viable cells were counted by trypan blue exclusion assay.
(§3) The ability of the ACK1 inhibitors to suppress proliferation of prostate cancer cell lines were also assessed. AIM-100, an ACK1 inhibitor, originally screened by Amgen was used as a control. […] Overall, it appears that ACK1 is needed for androgen-independent growth of prostate cancer cells.

[2] = test system: VCaP cells; test: Cell proliferation, trypan blue exclusion, VCaP; format: cell-based, human; conditions: 36 hrs, viable cells by trypan blue exclusion, read-out: IC50, inhibition of cell growth in VCaP cells
Experimental: as §1, §2, §3

[3] = test system: AR; test: AR protein levels in androgen-deprived prostate cancer cells, immunoblotting; format: cell-based, human; conditions: immunoblotting (FIG. 2)
Experimental: Transcriptional regulation of the AR gene itself is a paradigm that merits thorough investigation. […] Whether AR utilizes ACK1 to facilitate its transcriptional co-activator function is not known. […] Cells were also treated with ACK1-specific small molecule inhibitors, DZ1-067 or AIM-100.

[4] = test system: prostate xenograft tumor; conditions: literature; cited from earlier work
[5] = molecular target: T1, ACK1 (Homo sapiens, UniProt Q07912); test: EGF-induced ACK1 autophosphorylation (Tyr284) in LAPC4 cells, immunoblotting; format: cell-based; set-up: endogenous in cells; host or cells: LAPC4; conditions: pretreated with compound, 5 μM (FIG. 8(a))
Experimental: Inhibition of: LNCaP (FIG. 8(b)); LAPC4 (FIG. 8(c)), and VCaP (FIG. 8(d)) cell growth by AIM-100, (R)-9b, and (S)-9b. Inhibition of ACK1 autophosphorylation in LAPC4 cells treated 5 μM with (R)-9b and (S)-9b (FIG. 8(a)).
ACK1 is a tyrosine kinase that auto-phosphorylates at Tyr284, which is indicative of its kinase activation. To determine inhibitory potential of the compounds from library 9, prostate cancer derived cell line LAPC4 was treated with either EGF ligand alone or added to cells pretreated with the compounds, and equal amounts of cell lysates were subjected to immunoblotting. EGF (epidermal growth factor) ligand causes rapid activation of EGFR (epidermal growth factor receptor), which in turn lead to activation of the ACK1 kinase (FIG. 8(a), lane 2, top panel). […] Actin was used as control, which indicates equal loading of cell lysates (FIG. 8(a), lower panel).

[6] = test system: cell line which is dependent upon ACK1; conditions: literature; read-out: IC50, growth of a cell line dependent upon ACK1; cited from earlier work
[7] = attributed to oxidation of dithiolane ring and NMe2; literature; cited from earlier work
[8] = molecular target: T1, ACK1; conditions: literature; read-out: IC50, inhibition of ACK1 autophosphorylation in intact cells; cited from earlier work
[9] = molecular target: T1, ACK1; test: ACK1 ELISA: phosphorylation of AKT-derived peptide; format: biochemical; conditions: 10 μM, Table 1, replicate values listed
[10] = molecular target: T1, ACK1; test: 32P Hotspot assay (Reaction Biology), ACK1 IC50; format: biochemical
Experimental: (§4) 8 compounds were tested against […], ACK1, Src and ALK in various combinations. […] Reactions were carried out at 10 μM ATP.

[11] = molecular target: c-Src (Homo sapiens, UniProt P12931); test: Kinase IC50 profiling, c-Src; format: biochemical; conditions: Table 3; 10-dose; 10 μM ATP; read-out: Compound IC50* (M): c-Src
Experimental: as §4

[12] = molecular target: ALK (Homo sapiens, UniProt Q9UM73); test: Kinase IC50 profiling, ALK; format: biochemical; conditions: Table 4; 10-dose; 10 μM ATP; read-out: Compound IC50 (M), ALK
Experimental: as §4

[13] = test system: AR; test: AR mRNA by real time PCR in androgen-deprived prostate cancer cells; format: cell-based, human; conditions: overnight treatment (FIG. 3a, b)
Excerpt: Total RNA was isolated followed by qPCR with AR primers. VCaP, *p=0.022; LNCaP, *p=0.042, **p=0.047. […] Total RNA was isolated followed by qPCR with PSA primers.

[14] = test system: pY88-H4; test: Endogenous H4 Y88-phosphorylation in LNCaP cells; format: cell-based, human; conditions: 16 hrs (FIG. 5b)
Experimental: (§5) In FIG. 5(a), equimolar amounts of purified ACK1 and H4 proteins were incubated in the presence of DZ1-067 (100 nM) and reaction subjected to immunoblotting with pY88-H4 antibodies. […] The nuclear lysates were immunoprecipitated with pY88-H4 antibodies followed by immunoblotting with H4. Lower panel is input lysate.

[15] = test system: pY88-H4 marks in AR gene; test: ChIP-qPCR of pY88-H4 marks at the AR gene; format: cell-based, human; conditions: cells grown in absence of androgen (FIG. 6)
Experimental: In FIG. 6(a), the human AR gene and two pY88-H4 binding sites are shown. […] VCaP: *p<0.05, **p<0.05; LNCaP: *p<0.05, **p<0.05
To determine whether ACK1 modifies chromatin at AR gene locus, LNCaP and LAPC4 cells grown in the absence of androgen and were treated with DZ1-067. Chromatin immunoprecipitation (ChIP) was performed using pY88-H4 antibodies, followed by real time PCR with primers corresponding to the AR promoter, intron 2 and 3′UTR (FIG. 6a). […] These marks were also deposited at 3′UTR of the AR gene but not at the promoter region (FIG. 6b, c).

[16] = test system: AR and H3K4me3 at intron 2 of AR gene; test: ChIP-qPCR of AR and H3K4me3 at intron 2 of AR gene; format: cell-based, human; conditions: absence of androgen (FIG. 7)
Experimental: LNCaP cells treated with DZ1-067 and ChIP was performed using AR, H3K4me3, or IgG antibodies followed by qPCR using primers corresponding to intron 2, or control region. *p<0.05, **p<0.05, ***p<0.05, ****p<0.05.
To determine the functional and physiological relevance of pY88-H4/WDR5 interaction, and given the interaction of AR with MLL associated complex (Grasso C S, et al. The mutational landscape of lethal castration-resistant prostate cancer. Nature. 2012; 487(7406):239-43). ChIP experiments were performed to determine AR and H3K4me3 levels at the intron 2.

[17] = molecular target: T1, ACK1; test: In vitro kinase assay, purified ACK1 and histone H4, pY88-H4 immunoblotting; format: biochemical; set-up: made in house; host or cells: insect cells; conditions: DZ1-067 100 nM (FIG. 5a)
Experimental: as §5
To assess direct binding of ACK1 to H4, in vitro kinase assay was performed using purified ACK1 and H4 (New England Biolabs). Human ACK1 was expressed in insect cells and purified to homogeneity. Immunoblotting with pY88-H4 and pTyr antibodies confirmed that indeed H4 is directly Tyr-phosphorylated by ACK1 (FIG. 5a).

T1 sequence (Q07912 whole entry): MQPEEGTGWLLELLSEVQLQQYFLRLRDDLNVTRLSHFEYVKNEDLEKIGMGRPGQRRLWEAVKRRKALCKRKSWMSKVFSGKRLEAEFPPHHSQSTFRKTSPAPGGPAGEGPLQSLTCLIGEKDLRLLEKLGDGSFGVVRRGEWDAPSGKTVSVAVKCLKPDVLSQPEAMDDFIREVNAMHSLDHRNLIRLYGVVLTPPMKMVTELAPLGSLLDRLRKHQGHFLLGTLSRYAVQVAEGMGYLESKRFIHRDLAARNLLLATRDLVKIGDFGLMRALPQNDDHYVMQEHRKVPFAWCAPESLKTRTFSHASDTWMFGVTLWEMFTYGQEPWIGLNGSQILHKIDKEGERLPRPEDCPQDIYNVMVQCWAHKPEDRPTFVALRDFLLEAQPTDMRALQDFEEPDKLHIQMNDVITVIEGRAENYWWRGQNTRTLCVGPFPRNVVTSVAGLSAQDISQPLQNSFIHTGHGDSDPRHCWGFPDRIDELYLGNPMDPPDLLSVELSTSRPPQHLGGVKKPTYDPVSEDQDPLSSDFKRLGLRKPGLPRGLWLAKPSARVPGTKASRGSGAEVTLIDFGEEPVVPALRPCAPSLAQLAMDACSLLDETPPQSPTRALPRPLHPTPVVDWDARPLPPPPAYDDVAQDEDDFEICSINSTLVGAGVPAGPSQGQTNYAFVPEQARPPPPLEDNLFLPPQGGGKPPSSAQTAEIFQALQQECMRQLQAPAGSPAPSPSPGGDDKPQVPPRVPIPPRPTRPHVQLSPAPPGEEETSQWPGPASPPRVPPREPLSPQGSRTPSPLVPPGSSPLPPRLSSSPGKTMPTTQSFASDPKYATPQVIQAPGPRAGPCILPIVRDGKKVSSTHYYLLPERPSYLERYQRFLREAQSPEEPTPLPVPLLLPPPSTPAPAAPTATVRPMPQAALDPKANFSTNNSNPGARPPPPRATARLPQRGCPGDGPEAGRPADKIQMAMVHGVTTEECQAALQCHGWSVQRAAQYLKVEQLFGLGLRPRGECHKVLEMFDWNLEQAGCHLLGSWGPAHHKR
c-Src, sequence (P12931 whole entry): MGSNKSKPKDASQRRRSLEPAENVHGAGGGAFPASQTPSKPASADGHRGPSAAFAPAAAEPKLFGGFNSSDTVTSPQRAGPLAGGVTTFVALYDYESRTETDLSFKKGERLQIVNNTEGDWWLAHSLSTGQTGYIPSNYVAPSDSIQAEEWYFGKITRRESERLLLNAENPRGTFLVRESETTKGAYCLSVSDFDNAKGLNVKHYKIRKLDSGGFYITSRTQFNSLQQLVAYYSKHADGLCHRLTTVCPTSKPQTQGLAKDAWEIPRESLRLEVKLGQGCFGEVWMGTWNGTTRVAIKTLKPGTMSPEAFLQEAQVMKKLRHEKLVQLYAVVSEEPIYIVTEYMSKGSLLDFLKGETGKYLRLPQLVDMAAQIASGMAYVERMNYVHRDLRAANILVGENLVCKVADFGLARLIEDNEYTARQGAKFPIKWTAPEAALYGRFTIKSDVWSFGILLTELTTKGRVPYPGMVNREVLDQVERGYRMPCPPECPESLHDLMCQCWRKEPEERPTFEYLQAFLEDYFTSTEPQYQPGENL
ALK, sequence (Q9UM73 19-1620): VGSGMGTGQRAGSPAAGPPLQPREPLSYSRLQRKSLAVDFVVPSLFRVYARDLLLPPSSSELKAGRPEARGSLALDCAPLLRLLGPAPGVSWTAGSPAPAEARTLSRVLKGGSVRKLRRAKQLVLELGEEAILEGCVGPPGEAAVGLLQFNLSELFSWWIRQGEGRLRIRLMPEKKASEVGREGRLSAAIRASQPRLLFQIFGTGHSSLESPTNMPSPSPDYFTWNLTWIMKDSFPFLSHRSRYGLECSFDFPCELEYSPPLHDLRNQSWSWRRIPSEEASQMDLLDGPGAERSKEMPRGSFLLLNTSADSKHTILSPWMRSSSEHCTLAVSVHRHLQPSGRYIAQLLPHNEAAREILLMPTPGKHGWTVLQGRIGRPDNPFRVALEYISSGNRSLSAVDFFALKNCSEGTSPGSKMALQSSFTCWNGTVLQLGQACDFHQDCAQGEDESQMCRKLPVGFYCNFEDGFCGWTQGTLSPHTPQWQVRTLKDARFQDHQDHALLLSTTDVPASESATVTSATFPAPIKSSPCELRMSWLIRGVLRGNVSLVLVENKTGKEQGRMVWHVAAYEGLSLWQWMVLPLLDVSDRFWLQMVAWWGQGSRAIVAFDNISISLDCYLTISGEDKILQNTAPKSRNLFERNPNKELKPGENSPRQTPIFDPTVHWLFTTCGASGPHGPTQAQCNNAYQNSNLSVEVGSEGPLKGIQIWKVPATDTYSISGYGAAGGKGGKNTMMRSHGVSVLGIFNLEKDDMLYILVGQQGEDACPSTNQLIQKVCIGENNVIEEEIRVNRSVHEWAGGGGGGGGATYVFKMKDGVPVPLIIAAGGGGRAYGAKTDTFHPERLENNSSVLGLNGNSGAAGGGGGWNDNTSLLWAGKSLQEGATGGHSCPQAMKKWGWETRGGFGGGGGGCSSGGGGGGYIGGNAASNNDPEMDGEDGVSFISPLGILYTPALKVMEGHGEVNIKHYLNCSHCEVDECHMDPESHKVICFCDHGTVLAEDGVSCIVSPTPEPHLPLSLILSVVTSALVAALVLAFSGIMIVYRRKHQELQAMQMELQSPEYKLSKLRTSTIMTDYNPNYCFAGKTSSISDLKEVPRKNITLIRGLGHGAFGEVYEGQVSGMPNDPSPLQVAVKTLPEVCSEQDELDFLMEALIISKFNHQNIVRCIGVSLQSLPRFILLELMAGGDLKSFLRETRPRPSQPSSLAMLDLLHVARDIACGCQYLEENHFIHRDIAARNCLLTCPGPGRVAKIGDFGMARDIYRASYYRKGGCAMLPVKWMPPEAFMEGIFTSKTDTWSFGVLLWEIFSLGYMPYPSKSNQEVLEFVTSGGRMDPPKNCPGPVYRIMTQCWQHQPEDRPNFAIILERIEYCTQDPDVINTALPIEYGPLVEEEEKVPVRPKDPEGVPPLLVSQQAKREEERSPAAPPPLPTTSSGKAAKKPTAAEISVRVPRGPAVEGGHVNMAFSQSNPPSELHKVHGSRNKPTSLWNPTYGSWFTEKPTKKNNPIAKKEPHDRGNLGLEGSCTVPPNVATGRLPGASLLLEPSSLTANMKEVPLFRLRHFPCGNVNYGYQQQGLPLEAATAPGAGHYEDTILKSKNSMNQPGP

SMILES: c1ccc(-c2oc3ncnc(NC[C@@H]4CCCO4)c3c2-c2ccccc2)cc1 [AIM-100]
IC50 [1]: 7000 nM
IC50 [2]: 4000 nM
AR protein levels [3]: concomitant decrease in AR protein levels
castration and radioresistant prostate xenograft tumor growth [4]: inhibits
ACK1 activation (autophosphorylation) in EGF-treated LAPC4 cells [5]: significant reduction in ACK1 activation

SMILES: CN(C)CCOc1ccc(-c2oc3ncnc(NCC4SCCS4)c3c2-c2ccccc2)cc1 [Compound 1c]
IC50 [6]: 5 nM
pharmacokinetic properties [7]: poor pharmacokinetic properties

SMILES: COC(C)(C)CCn1nc(Nc2c(C)cccc2C)c2cnc(Nc3ccccc3)nc21 [Compound 2]
IC50 [8]: 20 nM

% Inhibition at 10 μM (ELISA) [9]: 91%
inhibition at 10 µM ([9]; read-out: % Inhibition at 10 μM (ELISA)): 93%
IC50 ([10]; Table 1, unit inferred, (RB) = Reaction Biology, replicates listed, read-out: IC50): 5.6e-08 M and 5.78e-08 M and 6.05e-08 M
IC50 ([10]; Table 3, 10-dose, 3-fold dilution from 10 μM, 10 μM ATP, read-out: Compound IC50* (M): ACK1): 6.05e-08 M
IC50 ([10]; Table 4, 10-dose, 10 μM ATP, read-out: Compound IC50 (M), ACK1): 5.78e-08 M
IC50 [11]: 4.38e-07 M
IC50 [12]: 1.43e-07 M
IC50 ([1]; Homo sapiens, LNCaP): 1800 nM
IC50 ([2]; Homo sapiens, VCaP): 2000 nM
H4 Tyr-phosphorylation by purified ACK1 [17]: abrogated
SMILES: CN1CCN(c2ccc(Nc3ncc(Cl)c(NC[C@H]4CCCO4)n3)cc2)CC1 [DZ1-067, (R)-5-chloro-N2-(4-(4-methylpiperazin-1-yl)phenyl)-N4-((tetrahydrofuran-2-yl)methyl)pyrimidine-2,4-diamine]
AR protein levels [3]: significant downregulation the AR protein
AR mRNA levels [13]: significantly suppressed
endogenous pY88-phosphorylation of H4 in LNCaP cells [14]: eliminated
pY88-H4 epigenetic marks in AR gene (ChIP) [15]: erased
AR and H3K4me3 methyl marks at intron 2 (ChIP) [16]: abolished
